We go through two compounds from patent US11364220B2, “Compounds and methods for inhibiting CPY26 enzymes” (Queen's University at Kingston, priority 2016, dated 2022).

One may read the pIC50 as −log10 of the IC50, conventionally taken in molar units.

pIC50: −log10 of the molar value.

In test [1] the test system is RA sensitive reporter construct pCYP26A1-luc in MCF-7 cells. In words: Retinoid activity assay, RA sensitive pCYP26A1-luc reporter in MCF-7 cells. In kind it is cell-based. The settings on record: 24 hours, firefly relative to Renilla luciferase. From the text: This retinoid activity assay measures the ability of test compounds to induce expression of a transiently transfected RA sensitive reporter construct. In this assay, MCF-7 cells are transfected with a construct comprising an upstream promoter of the CYP26A1 gene containing 2 RA response elements driving expression of firefly luciferase (pCYP26A1-luc). Since CYP26A1 is highly inducible by RA in these cells, this construct serves as a sensitive reporter of retinoid-like transcriptional activity.
MCF-7 cells were maintained in RPMI-1640 medium containing 10% FBS. Exponentially growing cells were harvested by incubation in trypsin. Cells were then collected and plated in 24-well plates at 50,000 cells/well. Once cells reached 80-90% confluence (e.g., the next day), cells were transfected with two plasmids. The first plasmid was CYP26A1-luc construct (375 ng). The second plasmid was a control plasmid comprising the Renilla luciferase gene driven by constitutive thymidine kinase promoter (pRL-tk) (25 ng). Transfection was performed using FuGene 6 transfection reagent (Promega) with a 1:3 ratio of DNA:FuGene. 24 hours after transfection, cells were treated with test compounds diluted in DMSO in triplicate at 0.1, 1 and 10 μM final concentrations. As a positive control for reporter activation, cells were also treated with RA diluted in DMSO at the same concentrations listed above. DMSO treatment alone served as a negative control. After 24 hours of treatment, cells were harvested in passive lysis buffer (Promega) and luciferase activity in cell lysates were read using a luminometer. Data are expressed as the activity of firefly luciferase relative to Renilla luciferase (see Table 3). For CYP26A1 inhibitor compounds, no activation of the reporter was detected, while the related retinoid-like compound induces luciferase expression.

In a further test the target is CYP26A1 (Homo sapiens (Human), UniProt O43174). Briefly: Cell-based inhibitor assay, [H]-RA metabolism in CYP26A1 stably transfected HeLa cells. The settings on record: for pIC50: CYP26A1 transfected HeLa cells, 3 hours at 37° C., inhibition of all trans-RA metabolism, read-out: IC50 26A1. The method, then: (§1) CYP26A1 or CYP26B1 stably transfected HeLa cells were maintained in Minimum Essential Medium (MEM) containing 10% fetal bovine serum (FBS) and 100 μg/mL hygromycin. Exponentially growing cells were harvested by incubation in trypsin. Cells were then collected and re-plated in 48-well culture plates at 5×10^5 cells in 0.2 mL of culture medium containing 0.05 μCi [H]-RA in the presence or absence of increasing concentrations of a test compound. The test compounds were diluted in dimethyl sulfoxide (DMSO) and then added in duplicate to wells at 0.01, 0.1, 1, 10 and 100 μM final concentration. […] Cells were incubated for 3 hours at 37° C. Retinoids were then extracted using the procedure of Bligh, et al., (1959), Canadian Journal of Biochemistry 37, 911-917, which was modified by using dichloromethane instead of chloroform. Each sample's water soluble radioactivity level was quantified using a β-scintillation counter (using Ecolume scintillation fluid, available from MP Biomedicals of Solon, Ohio, USA).

Test [2] relates to CYP26A1 expression in MCF-7 cells. In words: Enhancement of RA activity assay, qPCR of CYP26A1 in MCF-7 cells treated with RA plus compound. In kind it is cell-based. The settings on record: 1 μM RA + 1 μM compound, 24, 48, 72 hours. As for the experimental part:
An RA activity assay was used to measure the ability of compounds that inhibit CYP26A1 to enhance activity of RA, for example, by limiting its catabolism. This assay measured expression of endogenous RA target genes in MCF-7 cells that have been treated with RA and a compound of interest. A compound that inhibits CYP26 activity will have the effect of prolonging the induction of RA target genes in response to RA.
Exponentially growing MCF-7 cells were treated with trypsin, collected and plated into 6-well culture dishes at 300,000 cells per well. […] RA was also added at a final concentration of 1 μM. RNA was harvested using Trizol reagent after 24, 48, and 72 hours of treatment. cDNA was synthesized from 2 μg of total RNA using Superscript III cDNA synthesis kit with random priming (available from Life Technologies, Burlington, ON, Canada). Analysis of expression of the RA inducible CYP26A1 gene was quantified by qPCR normalized against expression of PMM2 with Sybr Select Master Mix (Life Technologies) and gene specific primers in a two-step thermal cycling reaction. Data is provided for a CYP26A1 selective inhibitor, which enhances the induction of CYP26A1.
On the technique in general: Real-time PCR tracks product formation cycle by cycle.

The next test has as its target CYP26B1 (Homo sapiens (Human), UniProt Q9NR63). In words: Cell-based inhibitor assay, [H]-RA metabolism in CYP26B1 stably transfected HeLa cells. The settings on record: for pIC50: CYP26B1 transfected HeLa cells, 3 hours at 37° C., inhibition of all trans-RA metabolism, read-out: IC50 26B1. The method, then:
as §1

The subject of test [3] is CYP26A1 expression in MCF-7 cells. In words: qPCR of endogenous RA target gene CYP26A1 in MCF-7 cells, compound alone. The class given is cell-based. The settings on record: 1 μM. The method, then: Additionally, for some compounds of particular interest, a second assay is performed to measure expression of endogenous RA target genes after treatment with test compounds in MCF-7 cells. Exponentially growing MCF-7 cells were treated with trypsin, collected and plated into 6-well culture dishes at 300,000 cells per well. Once cells reached confluency, they were treated with test compounds diluted in DMSO to a final concentration of 1 μM. As a positive control, cells were also treated with RA at 1 μM final concentration. After 24 hours of treatment, RNA was harvested using TRI reagent (available from Sigma-Aldrich, Oakville, Canada). cDNA was synthesized from 2 μg of total RNA using Superscript III cDNA synthesis kit with random priming (kit available from Life Technologies, Burlington, ON, Canada). Analysis of expression of a RA inducible CYP26A1 gene was quantified by qPCR normalized against expression of PMM2 with Sybr Select Master Mix (Life Technologies) and gene specific primers in a two-step thermal cycling reaction. Data is shown in Table 2 for select compounds of interest. […] See FIGS. 1 and 2 for graphs of retinoid activity.

Chain of CYP26A1 (O43174 whole entry, species assumed): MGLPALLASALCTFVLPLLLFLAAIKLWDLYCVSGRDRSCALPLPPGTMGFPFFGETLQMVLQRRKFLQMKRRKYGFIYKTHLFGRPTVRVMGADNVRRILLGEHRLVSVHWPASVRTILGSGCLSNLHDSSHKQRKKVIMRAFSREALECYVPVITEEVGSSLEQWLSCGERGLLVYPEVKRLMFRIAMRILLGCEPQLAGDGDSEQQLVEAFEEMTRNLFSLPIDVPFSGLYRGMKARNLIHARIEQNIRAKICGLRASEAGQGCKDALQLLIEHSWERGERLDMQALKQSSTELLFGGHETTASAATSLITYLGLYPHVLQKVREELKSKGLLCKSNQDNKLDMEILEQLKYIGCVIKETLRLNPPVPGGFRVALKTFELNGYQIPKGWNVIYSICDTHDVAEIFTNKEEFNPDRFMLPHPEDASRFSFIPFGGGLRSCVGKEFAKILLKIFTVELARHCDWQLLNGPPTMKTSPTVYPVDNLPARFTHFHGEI
Chain of CYP26B1 (Q9NR63 whole entry, species assumed): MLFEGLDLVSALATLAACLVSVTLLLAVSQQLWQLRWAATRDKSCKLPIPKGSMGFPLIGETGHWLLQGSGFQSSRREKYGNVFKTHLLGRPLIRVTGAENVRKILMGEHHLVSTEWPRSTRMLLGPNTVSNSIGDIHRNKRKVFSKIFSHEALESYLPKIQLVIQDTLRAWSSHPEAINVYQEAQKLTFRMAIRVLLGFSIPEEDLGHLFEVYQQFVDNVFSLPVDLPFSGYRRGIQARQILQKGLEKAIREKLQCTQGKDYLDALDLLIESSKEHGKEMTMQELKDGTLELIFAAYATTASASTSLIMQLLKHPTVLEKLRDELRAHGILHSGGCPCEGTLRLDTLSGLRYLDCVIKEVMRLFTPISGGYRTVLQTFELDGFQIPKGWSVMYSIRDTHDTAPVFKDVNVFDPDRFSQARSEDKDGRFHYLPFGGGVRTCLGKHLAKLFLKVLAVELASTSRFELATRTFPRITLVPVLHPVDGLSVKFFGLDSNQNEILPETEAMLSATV

On to `Cc1cc2c(cc1S(=O)(=O)Nc1ccc(C(C)(C)C(=O)O)cc1)C(C)(C)CCC2(C)C` [Cmpd 12], for which the “Luciferase Activity RLU Avg” value was 0.067 RLU in test [1] (0.1 μM), 0.082 RLU in test [1] (1 μM) and 0.041 RLU in test [1] (10 μM). Further, on CYP26A1, the “inhibitory activity towards CYP26A1 (in words)” value is “selective inhibitory activity towards CYP26A1”. Besides, the pIC50 is 7.00 on CYP26A1 and less than 3.00 at CYP26B1. Further, the “inhibition of CYP26A1-mediated RA metabolism compared with ketoconazole (in words)” value on CYP26A1 (see IC50 values in Table 2) is reported as “comparable to or better than ketoconazole”. Further, the “enhancement of RA signaling, induction of CYP26A1 expression (in words)” value in test [2] is “greatly enhance RA signaling”; in test [2] (listed as GGP12) it was “enhancement of RA signaling”. Moreover, the “inhibition of CYP26B1 enzyme (in words)” value against CYP26B1 was “None of the above compounds inhibited the CYP26B1 enzyme”.

As to `CC1(C)CCC(C)(C)c2cc(S(=O)(=O)Nc3ccc(C(=O)O)cc3)ccc21` [Cmpd 15], the “Luciferase Activity RLU Avg” value came to 0.129 RLU in test [1] (0.1 μM), 0.212 RLU in test [1] (1 μM) and 0.816 RLU in test [1] (10 μM). Also, the “inhibitory activity towards CYP26A1 (in words)” value on CYP26A1 is recorded as “does not exhibit any inhibitory activity”. Also, the results for the pIC50 at CYP26A1 and at CYP26B1 were less than 3.00 and less than 4.00, respectively. Moreover, the “expression of RA target genes, compound given alone (in words)” value in test [3] is on record as “induces expression of the RA target gene CYP26A1”. The “retinoid-like activity (in words)” value in test [3] (FIG. 8) is listed as “does exhibit retinoid-like activity”. For the same compound, the “inhibition of CYP26B1 enzyme (in words)” value on CYP26B1 is on record as “does not exhibit any inhibitory activity”.
